Legend:
Test in all cases: Kinase inhibitory activity profiling of RI-962@10 µM (406 kinases, Eurofins)
Format in all cases: biochemical
[1] = biological target: panel of human kinases (kinase named in endpoint) (Homo sapiens, UniProt O00141); conditions: 10 µM; read-out: Activity (%), SGK(h)
Protocol: (§1) In vitro kinase activity assays were conducted through the Kinase Profiling Services provided by Eurofins (Eurofins, France). The protocol for the RIPK1 assay is briefly described as follows (Protocols for other kinases are very similar and can be found in http://www.eurofins.com/pharmadiscovery). RIPK1 kinase was incubated with the test compound in assay buffer containing 8 mM MOPS (pH 7.0), 0.2 mM EDTA, 250 μM […], 10 mM magnesium acetate, and 10 μM [γ-33P]-ATP for 15 min at room temperature. The reaction was initiated by the addition of the Mg/ATP mixture. After incubation for 40 min at room temperature, and the reaction was stopped by the addition of 3% phosphoric acid. A 10 μL portion of the reaction mixture was then spotted onto a P30 filter mat and washed four times for 4 min in 0.425% phosphoric acid and once in methanol prior to drying and scintillation counting.

[2] = biological target: panel of human kinases (kinase named in endpoint) (Homo sapiens, UniProt O60285); conditions: 10 µM; read-out: Activity (%), ARK5(h)
Protocol: as §1

[3] = biological target: panel of human kinases (kinase named in endpoint) (Homo sapiens, UniProt P00519, Q252H); conditions: 10 µM; read-out: Activity (%), Abl (Q252H) (h)
Protocol: as §1

[4] = biological target: panel of human kinases (kinase named in endpoint) (Homo sapiens, UniProt P00533, L858R); conditions: 10 µM; read-out: Activity (%), EGFR(L858R)(h)
Protocol: as §1

[5] = biological target: panel of human kinases (kinase named in endpoint) (Homo sapiens, UniProt P08581, D1228H); conditions: 10 µM; read-out: Activity (%), Met(D1246H)(h)
Protocol: as §1

[6] = biological target: panel of human kinases (kinase named in endpoint) (Homo sapiens, UniProt P09769); conditions: 10 µM; read-out: Activity (%), Fgr(h)
panel of human kinases (kinase named in endpoint) (Homo sapiens, UniProt P09769), sequence (P09769 whole entry): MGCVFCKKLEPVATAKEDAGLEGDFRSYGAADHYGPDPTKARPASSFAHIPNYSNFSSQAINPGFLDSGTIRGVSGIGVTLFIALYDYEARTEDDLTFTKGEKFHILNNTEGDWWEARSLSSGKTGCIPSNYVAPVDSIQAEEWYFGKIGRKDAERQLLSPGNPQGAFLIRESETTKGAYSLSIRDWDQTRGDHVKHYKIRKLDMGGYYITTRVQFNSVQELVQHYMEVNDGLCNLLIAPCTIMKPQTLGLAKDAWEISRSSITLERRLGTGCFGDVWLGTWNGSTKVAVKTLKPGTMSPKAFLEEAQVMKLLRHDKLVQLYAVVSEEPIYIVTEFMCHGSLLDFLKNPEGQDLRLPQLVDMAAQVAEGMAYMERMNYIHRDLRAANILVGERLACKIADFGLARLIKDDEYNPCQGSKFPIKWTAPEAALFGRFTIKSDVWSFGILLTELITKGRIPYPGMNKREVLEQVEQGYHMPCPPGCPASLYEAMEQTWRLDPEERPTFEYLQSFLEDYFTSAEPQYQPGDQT
Protocol: as §1

[7] = biological target: panel of human kinases (kinase named in endpoint) (Homo sapiens, UniProt P10721, V654A); conditions: 10 µM; read-out: Activity (%), cKit(V654A)(h)
Protocol: as §1

[8] = biological target: panel of human kinases (kinase named in endpoint) (Homo sapiens, UniProt P17948); conditions: 10 µM; read-out: Activity (%), Flt1(h)
Protocol: as §1

[9] = biological target: panel of human kinases (kinase named in endpoint) (Homo sapiens, UniProt P29317); conditions: 10 µM; read-out: Activity (%), EphA2(h)
Protocol: as §1

[10] = biological target: panel of human kinases (kinase named in endpoint) (Homo sapiens, UniProt P36896); conditions: 10 µM; read-out: Activity (%), ALK4(h)
Protocol: as §1

[11] = biological target: panel of human kinases (kinase named in endpoint) (Homo sapiens, UniProt P41240); conditions: 10 µM; read-out: Activity (%), CSK(h)
Protocol: as §1

[12] = biological target: panel of human kinases (kinase named in endpoint) (Homo sapiens, UniProt P43403); conditions: 10 µM; read-out: Activity (%), ZAP-70(h)
Protocol: as §1

[13] = biological target: panel of human kinases (kinase named in endpoint) (Homo sapiens, UniProt P49761); conditions: 10 µM; read-out: Activity (%), CLK3(h)
Protocol: as §1

[14] = biological target: panel of human kinases (kinase named in endpoint) (Homo sapiens, UniProt P54756); conditions: 10 µM; read-out: Activity (%), EphA5(h)
panel of human kinases (kinase named in endpoint) (Homo sapiens, UniProt P54756), sequence (P54756 25-1037): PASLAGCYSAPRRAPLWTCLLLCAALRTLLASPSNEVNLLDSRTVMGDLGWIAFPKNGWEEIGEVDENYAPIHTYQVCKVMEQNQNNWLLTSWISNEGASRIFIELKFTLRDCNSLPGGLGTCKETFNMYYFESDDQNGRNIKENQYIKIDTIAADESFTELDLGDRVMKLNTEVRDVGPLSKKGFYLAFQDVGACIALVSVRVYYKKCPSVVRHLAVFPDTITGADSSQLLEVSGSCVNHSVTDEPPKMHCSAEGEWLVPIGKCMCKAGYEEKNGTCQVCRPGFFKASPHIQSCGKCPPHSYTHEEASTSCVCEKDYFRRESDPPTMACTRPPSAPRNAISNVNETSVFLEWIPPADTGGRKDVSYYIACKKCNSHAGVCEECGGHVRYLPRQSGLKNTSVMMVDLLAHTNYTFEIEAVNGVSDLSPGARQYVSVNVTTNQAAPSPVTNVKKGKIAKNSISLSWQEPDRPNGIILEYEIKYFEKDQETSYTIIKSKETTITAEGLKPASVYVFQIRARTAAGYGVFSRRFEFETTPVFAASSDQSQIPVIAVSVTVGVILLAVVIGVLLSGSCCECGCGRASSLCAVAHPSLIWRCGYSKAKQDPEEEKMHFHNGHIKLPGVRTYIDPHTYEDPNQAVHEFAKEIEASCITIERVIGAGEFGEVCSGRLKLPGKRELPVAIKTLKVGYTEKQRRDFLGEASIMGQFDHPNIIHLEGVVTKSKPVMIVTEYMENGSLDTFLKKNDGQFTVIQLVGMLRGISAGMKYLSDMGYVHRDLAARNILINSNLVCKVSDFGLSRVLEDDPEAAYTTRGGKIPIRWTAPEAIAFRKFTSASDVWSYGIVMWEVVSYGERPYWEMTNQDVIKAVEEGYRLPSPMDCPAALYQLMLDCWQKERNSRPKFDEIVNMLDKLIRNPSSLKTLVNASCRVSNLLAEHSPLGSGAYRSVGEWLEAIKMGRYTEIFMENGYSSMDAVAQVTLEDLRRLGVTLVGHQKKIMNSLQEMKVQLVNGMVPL
Protocol: as §1

[15] = biological target: panel of human kinases (kinase named in endpoint) (Homo sapiens, UniProt P78362); conditions: 10 µM; read-out: Activity (%), SRPK2(h)
Protocol: as §1

[16] = biological target: panel of human kinases (kinase named in endpoint) (Homo sapiens, UniProt Q02156); conditions: 10 µM; read-out: Activity (%), PKCε(h)
panel of human kinases (kinase named in endpoint) (Homo sapiens, UniProt Q02156), sequence (Q02156 whole entry): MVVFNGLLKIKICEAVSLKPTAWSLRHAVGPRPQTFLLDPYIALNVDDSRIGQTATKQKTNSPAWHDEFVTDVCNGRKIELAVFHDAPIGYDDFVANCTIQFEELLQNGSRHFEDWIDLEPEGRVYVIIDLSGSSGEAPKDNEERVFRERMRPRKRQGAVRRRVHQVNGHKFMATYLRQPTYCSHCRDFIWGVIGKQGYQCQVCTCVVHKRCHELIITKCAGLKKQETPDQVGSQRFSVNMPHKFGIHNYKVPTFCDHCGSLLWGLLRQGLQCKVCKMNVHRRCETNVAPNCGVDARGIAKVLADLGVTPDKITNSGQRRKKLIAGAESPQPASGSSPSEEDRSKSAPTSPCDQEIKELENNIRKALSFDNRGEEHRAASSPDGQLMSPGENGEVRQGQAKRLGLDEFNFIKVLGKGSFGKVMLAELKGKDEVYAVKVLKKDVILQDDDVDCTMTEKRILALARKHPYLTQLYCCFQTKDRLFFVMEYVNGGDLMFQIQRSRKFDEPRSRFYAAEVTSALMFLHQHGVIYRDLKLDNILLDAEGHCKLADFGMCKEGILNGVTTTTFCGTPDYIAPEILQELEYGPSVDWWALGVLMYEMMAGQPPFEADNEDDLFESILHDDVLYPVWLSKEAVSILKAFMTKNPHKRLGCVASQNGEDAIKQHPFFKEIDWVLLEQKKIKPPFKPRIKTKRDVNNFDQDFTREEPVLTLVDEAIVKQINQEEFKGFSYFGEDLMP
Protocol: as §1

[17] = biological target: panel of human kinases (kinase named in endpoint) (Homo sapiens, UniProt Q02763, R849W); conditions: 10 µM; read-out: Activity (%), Tie2(R849W)(h)
Protocol: as §1

[18] = biological target: panel of human kinases (kinase named in endpoint) (Homo sapiens, UniProt Q08345); conditions: 10 µM; read-out: Activity (%), DDR1(h)
Protocol: as §1

[19] = biological target: panel of human kinases (kinase named in endpoint) (Homo sapiens, UniProt Q8TD19); conditions: 10 µM; read-out: Activity (%), NEK9(h)
Protocol: as §1

[20] = biological target: panel of human kinases (kinase named in endpoint) (Homo sapiens, UniProt Q96BR1); conditions: 10 µM; read-out: Activity (%), SGK3(h)
Protocol: as §1

[21] = biological target: panel of human kinases (kinase named in endpoint) (Homo sapiens, UniProt Q9NYY3); conditions: 10 µM; read-out: Activity (%), Snk(h)
panel of human kinases (kinase named in endpoint) (Homo sapiens, UniProt Q9NYY3), sequence (Q9NYY3 whole entry): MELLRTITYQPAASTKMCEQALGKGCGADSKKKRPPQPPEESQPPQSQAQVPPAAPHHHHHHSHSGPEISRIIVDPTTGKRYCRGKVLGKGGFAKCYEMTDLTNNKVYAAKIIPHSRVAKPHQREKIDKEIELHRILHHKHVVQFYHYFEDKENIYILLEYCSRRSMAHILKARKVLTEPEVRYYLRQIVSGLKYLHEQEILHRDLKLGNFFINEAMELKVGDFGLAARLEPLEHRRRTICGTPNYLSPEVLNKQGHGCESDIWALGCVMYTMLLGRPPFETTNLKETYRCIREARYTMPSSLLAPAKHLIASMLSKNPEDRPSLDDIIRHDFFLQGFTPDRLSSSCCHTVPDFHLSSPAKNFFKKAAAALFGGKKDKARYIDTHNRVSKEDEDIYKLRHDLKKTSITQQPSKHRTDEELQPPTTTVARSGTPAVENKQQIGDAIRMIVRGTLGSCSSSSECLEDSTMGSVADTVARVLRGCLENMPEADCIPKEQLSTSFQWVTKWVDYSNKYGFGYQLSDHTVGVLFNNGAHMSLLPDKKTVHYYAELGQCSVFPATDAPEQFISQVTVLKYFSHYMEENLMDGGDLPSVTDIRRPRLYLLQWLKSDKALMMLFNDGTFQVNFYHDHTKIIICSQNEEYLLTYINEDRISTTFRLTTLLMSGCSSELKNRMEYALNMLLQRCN
Protocol: as §1

[22] = biological target: panel of human kinases (kinase named in endpoint) (Homo sapiens, UniProt Q9NZJ5); conditions: 10 µM; read-out: Activity (%), PEK(h)
panel of human kinases (kinase named in endpoint) (Homo sapiens, UniProt Q9NZJ5), sequence (Q9NZJ5 30-1116): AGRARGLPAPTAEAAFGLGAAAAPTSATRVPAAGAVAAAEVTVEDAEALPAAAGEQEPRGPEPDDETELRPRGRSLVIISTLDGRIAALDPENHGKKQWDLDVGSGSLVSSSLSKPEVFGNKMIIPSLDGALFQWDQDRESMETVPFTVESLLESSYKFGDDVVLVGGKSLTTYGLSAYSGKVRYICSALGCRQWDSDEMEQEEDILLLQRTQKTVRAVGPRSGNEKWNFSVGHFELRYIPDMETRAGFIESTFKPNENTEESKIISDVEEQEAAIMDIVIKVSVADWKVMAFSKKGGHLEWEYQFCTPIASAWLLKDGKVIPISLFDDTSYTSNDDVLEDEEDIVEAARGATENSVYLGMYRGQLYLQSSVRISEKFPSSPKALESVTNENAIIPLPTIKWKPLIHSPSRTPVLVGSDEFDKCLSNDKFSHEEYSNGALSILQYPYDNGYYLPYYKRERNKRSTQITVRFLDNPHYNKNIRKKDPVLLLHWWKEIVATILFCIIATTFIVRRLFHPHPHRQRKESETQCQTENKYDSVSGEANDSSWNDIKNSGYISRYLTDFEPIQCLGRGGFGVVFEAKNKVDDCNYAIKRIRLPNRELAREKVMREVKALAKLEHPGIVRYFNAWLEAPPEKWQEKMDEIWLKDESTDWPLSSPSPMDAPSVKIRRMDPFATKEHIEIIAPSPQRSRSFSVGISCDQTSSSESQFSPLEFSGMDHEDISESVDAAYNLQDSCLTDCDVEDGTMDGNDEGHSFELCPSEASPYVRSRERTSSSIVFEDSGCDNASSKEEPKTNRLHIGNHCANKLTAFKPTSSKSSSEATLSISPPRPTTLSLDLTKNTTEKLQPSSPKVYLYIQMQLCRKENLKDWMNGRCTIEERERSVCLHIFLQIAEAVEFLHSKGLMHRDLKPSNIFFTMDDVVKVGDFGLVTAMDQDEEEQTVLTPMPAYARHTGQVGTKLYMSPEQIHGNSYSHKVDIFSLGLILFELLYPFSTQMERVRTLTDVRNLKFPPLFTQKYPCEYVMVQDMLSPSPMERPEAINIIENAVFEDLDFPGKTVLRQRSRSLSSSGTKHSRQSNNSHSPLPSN
Protocol: as §1

[23] = biological target: panel of human kinases (kinase named in endpoint) (Homo sapiens, UniProt Q9P289); conditions: 10 µM; read-out: Activity (%), MST4(h)
panel of human kinases (kinase named in endpoint) (Homo sapiens, UniProt Q9P289), sequence (Q9P289 whole entry): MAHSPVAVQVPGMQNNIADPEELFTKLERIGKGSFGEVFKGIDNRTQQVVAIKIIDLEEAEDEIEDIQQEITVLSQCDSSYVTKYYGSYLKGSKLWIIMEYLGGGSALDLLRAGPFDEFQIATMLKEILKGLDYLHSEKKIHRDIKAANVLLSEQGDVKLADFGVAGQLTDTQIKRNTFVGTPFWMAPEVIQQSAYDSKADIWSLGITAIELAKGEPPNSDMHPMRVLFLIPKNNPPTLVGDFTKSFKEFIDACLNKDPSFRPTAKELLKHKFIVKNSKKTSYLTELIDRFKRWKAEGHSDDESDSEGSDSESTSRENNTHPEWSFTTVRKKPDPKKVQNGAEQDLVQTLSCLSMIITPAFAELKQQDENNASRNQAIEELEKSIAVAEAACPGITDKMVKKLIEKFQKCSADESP
Protocol: as §1

[24] = biological target: panel of human kinases (kinase named in endpoint) (Homo sapiens, UniProt Q9Y463); conditions: 10 µM; read-out: Activity (%), DYRK1B(h)
Protocol: as §1

[25] = biological target: panel of human kinases (kinase named in endpoint) (Homo sapiens, UniProt Q9Y6M4); conditions: 10 µM; read-out: Activity (%), CK1γ3(h)
Protocol: as §1

panel of human kinases (kinase named in endpoint) (Homo sapiens, UniProt O00141), sequence (O00141 whole entry): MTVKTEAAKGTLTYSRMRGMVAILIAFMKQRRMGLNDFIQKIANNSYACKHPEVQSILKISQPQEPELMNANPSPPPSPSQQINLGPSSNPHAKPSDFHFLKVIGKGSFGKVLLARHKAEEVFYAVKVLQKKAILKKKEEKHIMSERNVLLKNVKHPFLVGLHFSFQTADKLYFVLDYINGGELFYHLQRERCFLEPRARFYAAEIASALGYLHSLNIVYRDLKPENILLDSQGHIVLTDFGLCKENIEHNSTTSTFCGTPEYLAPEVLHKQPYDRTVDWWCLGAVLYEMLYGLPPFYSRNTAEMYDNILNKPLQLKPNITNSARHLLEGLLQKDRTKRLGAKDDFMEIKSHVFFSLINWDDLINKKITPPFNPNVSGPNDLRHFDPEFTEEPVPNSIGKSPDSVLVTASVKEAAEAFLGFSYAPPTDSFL

CC(C)C(=O)Nc1nc2cc(-c3ccc4c(c3)c(C(=O)NC(C)c3ccccc3)cn4C)ccn2n1 (stereo not shown) [RI-962] showed an activity at 10 µM [1] of 85%, an activity at 10 µM [2] of 83% and an activity at 10 µM [3] of 135%. For the same molecule, the activity at 10 µM [4] was 93%, the activity at 10 µM [5] was 134% and the activity at 10 µM [6] was 96%. The activity at 10 µM [7] was 85%, the activity at 10 µM [8] was 85% and the activity at 10 µM [9] was 96%. The activity at 10 µM [10] was 90%, the activity at 10 µM [11] was 76% and the activity at 10 µM [12] was 95%. It also gave an activity at 10 µM [13] of 94%, an activity at 10 µM [14] of 93% and an activity at 10 µM [15] of 100%. The activity at 10 µM [16] was 99%, the activity at 10 µM [17] was 109% and the activity at 10 µM [18] was 104%. The activity at 10 µM [19] was 85%, the activity at 10 µM [20] was 132% and the activity at 10 µM [21] was 79%. For the same molecule, the activity at 10 µM [22] was 94%, the activity at 10 µM [23] was 119% and the activity at 10 µM [24] was 100%. For the same molecule, the activity at 10 µM [25] was 96%.

From article PMC9653409, “Generative deep learning enables the discovery of a potent and selective RIPK1 inhibitor” (Nature Communications, 2022)
